This is an account of results in paper PMC9562916, “Investigation of the Phenolic Component Bioavailability Using the In Vitro Digestion/Caco-2 Cell Model, as well as the Antioxidant Activity in Chinese Red Wine” (Foods, 2022).

Marks after values point to notes of the source that are not given here.

Tested on in one series: not listed separately
As to the kind of experiment: PC content of red wine before and after in vitro simulated gastrointestinal digestion (HPLC). It counts as in vitro ADME. As to conditions: Cabernet red wine, after simulated gastrointestinal digestion. The method, then:
The digestion procedure was carried out by adapting the method of Brodkorb et al. and Gómez et al.. […] One milliliter (50 units/mL) of porcine amylase was prepared in a 15 mM Na₃PO₄ buffer solution (pH adjusted to 6.8) containing 1.5 mM CaCl2, and it was added to the red wine solution. After 5 min, 4.5 mL of 0.12 M HCl was added to the mixture to adjust the pH to 2.4. One milliliter of porcine pepsin (0.02 mg/L) was dissolved in a 20 mM HCl solution. The mixture was then maintained at 37 °C for 120 min. The digestion mixture was then centrifuged at 8000× g for 15 min to obtain samples from the gastric digestion phase. […] The mixture was incubated at pH 6.5 at 37 °C for 3 h before being centrifuged. The extracts of the intestinal phase were the supernatants. The same operation was done three times, and each sample was stored in a refrigerator (−20 °C) immediately for further analysis.
The Pati method was adopted, with slight modifications, to measure the content of the PCs. The Agilent 1100 series HPLC instrument was used; it was equipped with a degasser, quaternary pump solvent delivery, a DAD system, and a single quadrupole mass detector coupled with an electrospray ionization LC–MS interface. Briefly, th samples were injected into a Zorbax SB C18 reversed-phase column (5 µm,150 × 2.1 mm, Agilent Technologies, Santa Clara, CA, USA) using an autosampler after filtering through 0.45 µm cellulose acetate syringe filters. The column temperature was kept at 30 °C, the injection volume was 10 µL, and the flow rate was 0.3 mL/min. The eluents were water and formic acid in a 99:1 (v/v) (A) ratio and 100% acetonitrile (B). […] The MS configuration was as follows: ESI, negative ion mode, nebulizer pressure of 30 psi, a dry gas flow rate of 10 mL/min, dry gas temperature of 350 °C, and a scan rate of 100~1200 m/z. PCs were determined according to their retention times, UV/VIS spectra, and high-resolution MS spectra, in addition to a comparison with the standards. […] Putative annotations were made using spectral features and literature information on the chromatographic properties and mass spectra records from the metabolome database. A standard curve was drawn using methanol solutions with different concentrations as the standards. The limits of detection and quantitation were calculated according to the signal-to-noise ratio (limit of detection: signal-to-noise ratio ≥ 3; limit of quantitation: signal-to-noise ratio ≥ 10). […] PCs All of the samples were determined in triplicate.
Turning to `CC(=O)OCC1OC(Oc2cc3c(O)cc(O)cc3[o+]c2-c2cc(O)c(O)c(O)c2)C(O)C(O)C1O` (centres unmarked) [Delphinidin-3-acglc], the “PC Contents, Cabernet, After Digestion” value was 0.29 ± 0.014 ^b mg/L.

Take `OC[C@H]1O[C@@H](Oc2cc3c(O)cc(O)cc3[o+]c2-c2cc(O)c(O)c(O)c2)[C@H](O)[C@@H](O)[C@@H]1O` [Delphinidin-3-glc, delphinidin-3-glucoside]: the “PC Contents, Cabernet, After Digestion” value is 2.96 ± 0.09 ^b mg/L.

Still in this series, the particulars now being: Helanshan red wine, after digestion vs undigested.
For the compound `OC[C@H]1O[C@@H](Oc2cc3c(O)cc(O)cc3[o+]c2-c2cc(O)c(O)c(O)c2)[C@H](O)[C@@H](O)[C@@H]1O` [Delphinidin-3-glc, delphinidin-3-glucoside], the “Increase in content after digestion” value is listed as 28.3%.

Staying with this series, now noted: Helanshan red wine, after simulated gastrointestinal digestion.
On to `CC(=O)OCC1OC(Oc2cc3c(O)cc(O)cc3[o+]c2-c2cc(O)c(O)c(O)c2)C(O)C(O)C1O` (centres unmarked) [Delphinidin-3-acglc], for which the “PC Contents, Helanshan, After Digestion” value is recorded as 0.14 ± 0.007 ^b mg/L.

As for `OC[C@H]1O[C@@H](Oc2cc3c(O)cc(O)cc3[o+]c2-c2cc(O)c(O)c(O)c2)[C@H](O)[C@@H](O)[C@@H]1O` [Delphinidin-3-glc, delphinidin-3-glucoside], the “PC Contents, Helanshan, After Digestion” value was 2.63 ± 0.10 ^c mg/L.

The series is the same for the next values; noted with them: Tianzhu red wine, after digestion vs undigested.
For the compound `OC[C@H]1O[C@@H](Oc2cc3c(O)cc(O)cc3[o+]c2-c2cc(O)c(O)c(O)c2)[C@H](O)[C@@H](O)[C@@H]1O` [Delphinidin-3-glc, delphinidin-3-glucoside], the “Increase in content after digestion” value was 20.6%.

Staying with this series, now noted: Tianzhu red wine, after simulated gastrointestinal digestion.
Take `CC(=O)OCC1OC(Oc2cc3c(O)cc(O)cc3[o+]c2-c2cc(O)c(O)c(O)c2)C(O)C(O)C1O` (centres unmarked) [Delphinidin-3-acglc]: the “PC Contents, Tianzhu, After Digestion” value is recorded as 0.22 ± 0.008 ^b mg/L.

Regarding `OC[C@H]1O[C@@H](Oc2cc3c(O)cc(O)cc3[o+]c2-c2cc(O)c(O)c(O)c2)[C@H](O)[C@@H](O)[C@@H]1O` [Delphinidin-3-glc, delphinidin-3-glucoside], the “PC Contents, Tianzhu, After Digestion” value is recorded as 2.87 ± 0.11 ^c mg/L.

For the next series, the system named is Caco-2 cell monolayer. Briefly: Caco-2 transepithelial transport assay of digested red wine. As to conditions: Cabernet red wine, digested sample, basolateral side of Caco-2 monolayer. Format: in vitro ADME, human. The method, then:
Caco-2 cells were inoculated following the method of Hubatsch et al. […] Briefly, a 5% v/v of CO2 incubator at 37 °C was used to house the cells. […] Caco-2 cells were sub-cultured when they reached 80-90% of the adherent growth by treating them with a 0.05% v/v of trypsin-EDTA solution. The culture between passages 35 and 40 was used for the following experiment. Transport experiments were performed according to the method of Wu et al. with slight modifications. First, 1.0 × 10^5 Caco-2 cells were inoculated onto 12 mm transparent cell culture plates (Transwell). Media were carefully injected into the apical (0.5 mL) and basolateral (1.5 mL) sides of the Transwell plates. The cell culture medium had to be replaced every other day until the cells formed a monolayer. The integrity and transport ability of the Caco-2 cell monolayer were evaluated by measuring the trans-epithelial electrical resistance (TEER) with a MilliCell voltammeter (Millicell ERS-2, Merck Millipore, Billerica, MA, USA). […] When the cell activity exceeded 0.9, a transport experiment was conducted. The apical side was injected with a digested red wine sample (0.5 mL) and was thoroughly mixed with […] Balanced Salt Solution (HBSS) buffer solution. […] The cells were then cultured in a 37 °C, 5% CO2 incubator. Then, 0.25 mL samples were separately taken from the basolateral side of the monolayer. An equal volume of HBSS buffer was then added every half hour from the beginning of the culture until the end of the culture at 6 h. The collected samples were subsequently filtered and placed in the sample bottle for further HPLC analysis. This experiment was repeated several times to collect enough samples for the next antioxidant test. […] The Agilent 1100 series HPLC instrument was used; it was equipped with a degasser, quaternary pump solvent delivery, a DAD system, and a single quadrupole mass detector coupled with an electrospray ionization LC-MS interface. […] The column temperature was kept at 30 °C, the injection volume was 10 μL, and the flow rate was 0.3 mL/min. The eluents were water and formic acid in a 99:1 (v/v) (A) ratio and 100% acetonitrile (B). The gradient elution procedure was as follows: (1) 3% B solvent at 0 min, (2) 3 to 16% B solvent at 10 min, (3) 16 to 20% B solvent at 30 min, and (4) 20% B solvent maintained until the procedure was completed. The MS configuration was as follows: ESI, negative ion mode, nebulizer pressure of 30 psi, a dry gas flow rate of 10 mL/min, dry gas temperature of 350 °C, and a scan rate of 100~1200 m/z. PCs were determined according to their retention times, UV/VIS spectra, and high-resolution MS spectra, in addition to a comparison with the standards. […] If a standard was unavailable, a structurally related compound was used. Putative annotations were made using spectral features and literature information on the chromatographic properties and mass spectra records from the metabolome database. A standard curve was drawn using methanol solutions with different concentrations as the standards. […] PCs All of the samples were determined in triplicate.
On the technique in general: Caco-2 monolayers are a common model of the intestinal barrier.
As for `CC(=O)OCC1OC(Oc2cc3c(O)cc(O)cc3[o+]c2-c2cc(O)c(O)c(O)c2)C(O)C(O)C1O` (centres unmarked) [Delphinidin-3-acglc], the “PC Contents, Cabernet, Transmembrane” value is given as 0.04 ± 0.002 ^a mg/L.

As for `OC[C@H]1O[C@@H](Oc2cc3c(O)cc(O)cc3[o+]c2-c2cc(O)c(O)c(O)c2)[C@H](O)[C@@H](O)[C@@H]1O` [Delphinidin-3-glc, delphinidin-3-glucoside], the “PC Contents, Cabernet, Transmembrane” value was 0.59 ± 0.02 ^a mg/L.

Still in this series, the particulars now being: Helanshan red wine, digested sample, basolateral side of Caco-2 monolayer.
As to `CC(=O)OCC1OC(Oc2cc3c(O)cc(O)cc3[o+]c2-c2cc(O)c(O)c(O)c2)C(O)C(O)C1O` (centres unmarked) [Delphinidin-3-acglc], the “PC Contents, Helanshan, Transmembrane” value was 0.02 ± 0.001 ^a mg/L.

For the compound `OC[C@H]1O[C@@H](Oc2cc3c(O)cc(O)cc3[o+]c2-c2cc(O)c(O)c(O)c2)[C@H](O)[C@@H](O)[C@@H]1O` [Delphinidin-3-glc, delphinidin-3-glucoside], the “PC Contents, Helanshan, Transmembrane” value is 0.53 ± 0.02 ^a mg/L.

The series is the same for the next values; noted with them: Tianzhu red wine, digested sample, basolateral side of Caco-2 monolayer.
Regarding `CC(=O)OCC1OC(Oc2cc3c(O)cc(O)cc3[o+]c2-c2cc(O)c(O)c(O)c2)C(O)C(O)C1O` (centres unmarked) [Delphinidin-3-acglc], the “PC Contents, Tianzhu, Transmembrane” value is recorded as 0.04 ± 0.002 ^a mg/L.

As for `OC[C@H]1O[C@@H](Oc2cc3c(O)cc(O)cc3[o+]c2-c2cc(O)c(O)c(O)c2)[C@H](O)[C@@H](O)[C@@H]1O` [Delphinidin-3-glc, delphinidin-3-glucoside], the “PC Contents, Tianzhu, Transmembrane” value was 0.57 ± 0.02 ^a mg/L.

The series is the same for the next values; noted with them: apical to basolateral, digested Cabernet red wine.
In the case of `CC(=O)OCC1OC(Oc2cc3c(O)cc(O)cc3[o+]c2-c2cc(O)c(O)c(O)c2)C(O)C(O)C1O` (centres unmarked) [Delphinidin-3-acglc], the “Apparent Permeability Coefficients, Cabernet” value was 8.57 ± 1.26 ^a ×10^−6 cm/s.

Turning to `OC[C@H]1O[C@@H](Oc2cc3c(O)cc(O)cc3[o+]c2-c2cc(O)c(O)c(O)c2)[C@H](O)[C@@H](O)[C@@H]1O` [Delphinidin-3-glc, delphinidin-3-glucoside], the “Apparent Permeability Coefficients, Cabernet” value is on record as 12.38 ± 2.37 ^a ×10^−6 cm/s.

Staying with this series, now noted: apical to basolateral, digested Helanshan red wine.
As to `CC(=O)OCC1OC(Oc2cc3c(O)cc(O)cc3[o+]c2-c2cc(O)c(O)c(O)c2)C(O)C(O)C1O` (centres unmarked) [Delphinidin-3-acglc], the “Apparent Permeability Coefficients, Helanshan” value was 8.64 ± 1.38 ^a ×10^−6 cm/s.

On to `OC[C@H]1O[C@@H](Oc2cc3c(O)cc(O)cc3[o+]c2-c2cc(O)c(O)c(O)c2)[C@H](O)[C@@H](O)[C@@H]1O` [Delphinidin-3-glc, delphinidin-3-glucoside], for which the “Apparent Permeability Coefficients, Helanshan” value is on record as 12.59 ± 2.64 ^a ×10^−6 cm/s.

The same series, now with this note: apical to basolateral, digested Tianzhu red wine.
In the case of `CC(=O)OCC1OC(Oc2cc3c(O)cc(O)cc3[o+]c2-c2cc(O)c(O)c(O)c2)C(O)C(O)C1O` (centres unmarked) [Delphinidin-3-acglc], the “Apparent Permeability Coefficients, Tianzhu” value is given as 8.78 ± 1.44 ^a ×10^−6 cm/s.

On to `OC[C@H]1O[C@@H](Oc2cc3c(O)cc(O)cc3[o+]c2-c2cc(O)c(O)c(O)c2)[C@H](O)[C@@H](O)[C@@H]1O` [Delphinidin-3-glc, delphinidin-3-glucoside], for which the “Apparent Permeability Coefficients, Tianzhu” value is listed as 12.45 ± 2.11 ^a ×10^−6 cm/s.
